What was measured:
[1] = at 25° C.; cited from earlier work
[2] = Evaporation test of spinosad from impregnated paper mats on mat diffusers (HPLC); type: physicochemical; conditions: Example 1 mat, initial 80 mgs per mat; for Percentage of Spinosad Evaporated: 8 h
Experimental: Paper mats having dimensions of 35 mm (length)×21.5 mm (width)×2.5 mm (thickness) were then gradually impregnated with 0.84-1.70 grams of the above upper phase mixture (depending on its content in spinosad) so as to have approximately 80 mgs of pure spinosad per mat. The mats were left at a temperature of approximately 30° C. for 3 hours during which time most of the ethyl alcohol was evaporated. Next the mats were closed within foil comprising metallized polyethylene terepthalate PET 12 μm/adhesive/PET 35 μm. The mats were allowed to rest for 24 hours to allow for complete spread of the liquid material within the paper. Evaporation tests were then run as follows:
(§1) The foil was opened and a mat was removed. The mat was checked by HPLC to confirm its spinosad content. As was theoretically expected, 80 mgs of pure spinosad per mat were found. Four mats of this batch were then placed on common mat diffusers having a temperature ranging from 130° C. to 160° C. The amount of spinosad remaining on the mat was checked after each of 2, 4, and 8 hours of diffuser operation.
as §1, with “the content of spinosad.” for “its spinosad content.”, “11” for “80”, “mats” for “mats of this batch”, “of” for “of diffuser”
as §1, with “confirm the content of spinosad.” for “confirm its spinosad content.”, “expected, 10” for “expected, 80”, “mat was” for “mat were”, “mats” for “mats of this batch”, “of” for “of diffuser”

[3] = Evaporation of liquid formulation from bottle with ceramic wick on diffuser; type: physicochemical; conditions: equal to 1 gram of mixture, diffuser 125°-150° C.
Experimental: PET plastic bottles were then each filled with 24 grams of the above formulation. A plastic insert and ceramic wick were then placed in the opening of the bottle and the bottle was screwed onto a common diffuser. The diffuser was operated at a temperature ranging from 125°-150° C. […] The remainder of the mixture in the bottle was then analyzed by HPLC. […] The bottle was then plugged off and stored for 12 additional hours. The bottle was again screwed onto a common diffuser, and the diffuser was operated at a temperature of 125°-150° C.

mammals [4] = conditions: cited from earlier work
mammals [5] = conditions: in vivo; cited from earlier work
birds = conditions: in vivo; cited from earlier work
fish = conditions: in vivo; cited from earlier work

## CC[C@H]1CCC[C@H](O[C@H]2CC[C@H](N(C)C)[C@@H](C)O2)[C@@H](C)C(=O)C2=C[C@@H]3[C@@H](C=C[C@@H]4C[C@@H](O[C@@H]5O[C@@H](C)[C@H](OC)[C@@H](OC)[C@H]5OC)C[C@@H]34)[C@@H]2CC(=O)O1 [spinosyn A]
[1]
  vapor pressure: 2.4 ×10^−10 mmHg

## Spinosad
[2]; diffuser temperature 130° C.
  Percentage of Spinosad Evaporated: 75%
  Quantity of Spinosad Remained on mat after 8 h of operation: 20 mgs
[2]; diffuser temperature 140° C.
  Percentage of Spinosad Evaporated: 85%
  Quantity of Spinosad Remained on mat after 8 h of operation: 12 mgs
[2]; diffuser temperature 160° C.
  Percentage of Spinosad Evaporated: 98%
  Quantity of Spinosad Remained on mat after 8 h of operation: 2 mgs
[3]
  pure spinosad evaporated after 8 hours: 20 mgs
Mammals [4]
  chronic toxicology findings: not carcinogenic, teratogenic, mutagenic, or neurotoxic
Mammals [5]
  toxicity to mammals: relatively low
birds
  toxicity to birds: relatively low
fish
  toxicity to fish: only slightly toxic
